Common to all, as to format: cell-based
The target in test [1] is protein kinases (human kinome) (Homo sapiens, UniProt P49137).
Test [2] addresses protein kinases (human kinome) (Homo sapiens, UniProt P06239).
Test [3] has as its target protein kinases (human kinome) (Homo sapiens, UniProt P53350).
In test [4] the target is T1, protein kinases (human kinome) (Homo sapiens, UniProt Q9UBE8).
T1 sequence (Q9UBE8 1-527): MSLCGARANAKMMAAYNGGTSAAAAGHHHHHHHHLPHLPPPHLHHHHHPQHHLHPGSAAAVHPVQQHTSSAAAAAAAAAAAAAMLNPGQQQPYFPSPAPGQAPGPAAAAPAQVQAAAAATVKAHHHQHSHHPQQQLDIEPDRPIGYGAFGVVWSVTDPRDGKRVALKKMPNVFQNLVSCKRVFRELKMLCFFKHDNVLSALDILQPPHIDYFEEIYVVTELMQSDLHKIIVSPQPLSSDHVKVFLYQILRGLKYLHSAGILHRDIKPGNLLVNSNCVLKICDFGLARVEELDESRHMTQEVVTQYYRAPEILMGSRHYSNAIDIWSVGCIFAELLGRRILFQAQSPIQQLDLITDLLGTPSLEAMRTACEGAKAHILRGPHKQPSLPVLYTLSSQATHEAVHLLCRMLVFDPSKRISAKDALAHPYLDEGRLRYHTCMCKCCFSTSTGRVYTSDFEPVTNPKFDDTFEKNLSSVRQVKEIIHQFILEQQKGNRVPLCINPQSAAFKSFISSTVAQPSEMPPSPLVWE

Test [5] concerns the target protein kinases (human kinome) (Homo sapiens, UniProt Q13164). As to conditions: MAPK7 (Q13164-1).
The target in test [6] is protein kinases (human kinome) (Homo sapiens, UniProt P06493). The conditions noted are these: CDK1 P06493.
The mark [7] stands for this setting: LCK P06239-1, experiment wp160, 4 hr.
[8] abbreviates: LCK, accession P06239-1, experiment wp160, 4 hr, direction of change down.
[9] abbreviates: NLK (Q9UBE8), experiment wp137, direction down.
The mark [10] stands for this setting: PLK1 P53350, experiment wp133, 1 hr.
[11] abbreviates: PLK1 P53350, experiment wp133, 2 hr.
Where [12] appears, read: PLK1 P53350, experiment wp133, 4 hr.
The mark [13] stands for this setting: LCK, accession P06239-1, experiment wp081, direction of change down.

Read-outs that look alike come from different tables or passages of the source.

Sequence of protein kinases (human kinome) (Homo sapiens, UniProt P53350) (P53350 whole entry): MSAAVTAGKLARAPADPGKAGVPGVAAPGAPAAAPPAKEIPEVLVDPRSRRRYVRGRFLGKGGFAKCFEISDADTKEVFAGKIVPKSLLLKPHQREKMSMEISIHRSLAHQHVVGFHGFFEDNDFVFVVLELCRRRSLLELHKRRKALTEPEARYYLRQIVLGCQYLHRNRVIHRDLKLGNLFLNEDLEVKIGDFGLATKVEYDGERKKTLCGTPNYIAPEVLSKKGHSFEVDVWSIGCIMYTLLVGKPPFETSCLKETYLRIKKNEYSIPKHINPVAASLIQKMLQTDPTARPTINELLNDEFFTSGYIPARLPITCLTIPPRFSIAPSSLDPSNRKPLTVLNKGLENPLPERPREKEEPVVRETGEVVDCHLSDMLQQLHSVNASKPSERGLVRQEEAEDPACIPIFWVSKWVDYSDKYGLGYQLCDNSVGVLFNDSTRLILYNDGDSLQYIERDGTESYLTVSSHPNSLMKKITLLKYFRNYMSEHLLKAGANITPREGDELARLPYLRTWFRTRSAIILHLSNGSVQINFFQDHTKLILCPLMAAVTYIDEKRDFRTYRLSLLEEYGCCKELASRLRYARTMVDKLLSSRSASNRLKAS
Sequence of protein kinases (human kinome) (Homo sapiens, UniProt P49137) (P49137 whole entry): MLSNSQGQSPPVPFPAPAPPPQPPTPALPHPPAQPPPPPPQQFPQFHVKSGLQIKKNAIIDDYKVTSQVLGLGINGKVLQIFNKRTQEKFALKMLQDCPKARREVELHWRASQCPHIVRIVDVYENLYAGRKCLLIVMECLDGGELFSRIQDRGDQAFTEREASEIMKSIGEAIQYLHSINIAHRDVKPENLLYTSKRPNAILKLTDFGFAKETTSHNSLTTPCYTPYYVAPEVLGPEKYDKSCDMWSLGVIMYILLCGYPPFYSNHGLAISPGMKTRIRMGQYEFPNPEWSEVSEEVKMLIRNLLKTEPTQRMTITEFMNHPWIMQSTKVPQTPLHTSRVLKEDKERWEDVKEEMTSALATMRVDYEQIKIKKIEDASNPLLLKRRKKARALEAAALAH
Sequence of protein kinases (human kinome) (Homo sapiens, UniProt P06239) (P06239 whole entry): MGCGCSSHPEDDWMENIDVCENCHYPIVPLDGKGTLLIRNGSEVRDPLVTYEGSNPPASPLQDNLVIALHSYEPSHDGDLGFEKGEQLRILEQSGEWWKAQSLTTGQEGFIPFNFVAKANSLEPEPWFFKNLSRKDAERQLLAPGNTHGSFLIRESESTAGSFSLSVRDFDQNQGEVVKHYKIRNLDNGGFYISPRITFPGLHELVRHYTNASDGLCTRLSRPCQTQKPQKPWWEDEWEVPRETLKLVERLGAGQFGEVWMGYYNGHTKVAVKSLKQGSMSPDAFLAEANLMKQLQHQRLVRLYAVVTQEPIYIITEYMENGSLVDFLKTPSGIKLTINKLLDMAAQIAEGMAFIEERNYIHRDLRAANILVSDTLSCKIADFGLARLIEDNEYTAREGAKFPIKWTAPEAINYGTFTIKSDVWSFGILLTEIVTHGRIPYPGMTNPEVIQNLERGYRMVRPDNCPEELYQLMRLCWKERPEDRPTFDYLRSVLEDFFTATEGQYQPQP
Sequence of protein kinases (human kinome) (Homo sapiens, UniProt Q13164) (Q13164 whole entry): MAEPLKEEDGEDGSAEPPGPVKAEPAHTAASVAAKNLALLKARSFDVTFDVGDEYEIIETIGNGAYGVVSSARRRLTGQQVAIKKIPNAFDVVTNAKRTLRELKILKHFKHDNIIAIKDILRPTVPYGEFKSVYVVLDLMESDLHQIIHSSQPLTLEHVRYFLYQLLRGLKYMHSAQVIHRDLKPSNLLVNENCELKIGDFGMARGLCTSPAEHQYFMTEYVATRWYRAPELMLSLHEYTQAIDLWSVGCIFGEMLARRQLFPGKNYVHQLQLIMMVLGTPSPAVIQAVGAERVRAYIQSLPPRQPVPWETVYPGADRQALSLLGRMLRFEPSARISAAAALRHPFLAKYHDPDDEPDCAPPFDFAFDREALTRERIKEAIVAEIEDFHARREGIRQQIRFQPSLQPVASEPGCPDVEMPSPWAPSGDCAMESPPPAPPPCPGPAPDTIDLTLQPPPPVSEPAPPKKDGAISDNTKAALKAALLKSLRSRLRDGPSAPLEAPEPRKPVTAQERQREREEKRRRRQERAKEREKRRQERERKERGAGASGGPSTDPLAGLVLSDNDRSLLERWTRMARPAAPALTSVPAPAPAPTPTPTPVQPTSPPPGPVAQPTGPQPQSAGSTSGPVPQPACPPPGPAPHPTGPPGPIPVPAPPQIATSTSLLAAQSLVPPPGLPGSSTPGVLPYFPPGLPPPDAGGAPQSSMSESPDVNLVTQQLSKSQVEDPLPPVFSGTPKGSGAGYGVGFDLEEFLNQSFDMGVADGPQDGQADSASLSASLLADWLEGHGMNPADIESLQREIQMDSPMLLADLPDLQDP
Sequence of protein kinases (human kinome) (Homo sapiens, UniProt P06493) (P06493 whole entry): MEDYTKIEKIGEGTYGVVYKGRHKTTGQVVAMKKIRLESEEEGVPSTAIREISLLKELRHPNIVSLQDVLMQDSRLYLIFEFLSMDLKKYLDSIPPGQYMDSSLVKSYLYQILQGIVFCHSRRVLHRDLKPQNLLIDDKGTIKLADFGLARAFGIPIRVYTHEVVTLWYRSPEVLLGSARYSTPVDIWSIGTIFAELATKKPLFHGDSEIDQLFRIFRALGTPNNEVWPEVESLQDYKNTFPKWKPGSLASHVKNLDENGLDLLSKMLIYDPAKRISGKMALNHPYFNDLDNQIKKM

As to `Cc1ccc(NC(=O)c2cccc(C(F)(F)F)c2)cc1N1Cc2cnc(Nc3ccc(N4CCN(Cc5cn(CCCCCOc6cccc7c6C(=O)N(C6CCC(=O)NC6=O)C7=O)nn5)CC4)nc3)nc2N(C)C1=O` (centres unmarked) [DB0646, N-(3-(7-((6-(4-((1-(5-((2-(2,6-Dioxopiperidin-3-yl)-1,3-dioxoisoindolin-4-yl)oxy)pentyl)-1H-1,2,3-triazol-4-yl)methyl)piperazin-1-v)pyridin-3-yl)amino)-1-methyl-2-oxo-1,4-dihydropyrimido[4,5-d]pyrimidin-3(2H)-yl)-4-methylphenyl)-3-(trifluoromethyl)benzamide], the “logFC MAPKAPK2” value is given as −0.4334 in test [1] (Accession P49137, experiment wp045, direction down); −0.4562 in test [1] (Accession P49137, experiment wp105, direction down); −0.3734 in test [1] (Accession P49137, experiment wp107, direction down); −0.4911 in test [1] (Accession P49137, experiment wp114, direction down); −0.4333 in test [1] (Accession P49137, experiment wp117, direction down); −0.4223 in test [1] (Accession P49137, experiment wp152, direction down). For the same molecule, the “logFC MAPKAPK2” value in test [1] (Accession P49137, experiment wp160, 4 hr, direction down) was −0.3444; in test [1] (Accession P49137, experiment wp160, 8 hr, direction down), −0.6227; in test [1] (Accession P49137, experiment wp172, direction down) it was −0.3294; in test [1] (MAPKAPK2 (P49137), experiment wp045), −0.4334; in test [1] (MAPKAPK2 (P49137), experiment wp105) it was −0.4562; in test [1] (MAPKAPK2 (P49137), experiment wp107), −0.3734. Further, the “logFC MAPKAPK2” value in test [1] (MAPKAPK2 (P49137), experiment wp114) is on record as −0.4911; in test [1] (MAPKAPK2 (P49137), experiment wp117), −0.4333; in test [1] (MAPKAPK2 (P49137), experiment wp152) it was −0.4223; in test [1] (MAPKAPK2 (P49137), experiment wp160, 4 hr) it was −0.3444; in test [1] (MAPKAPK2 (P49137), experiment wp160, 8 hr), −0.6227; in test [1] (MAPKAPK2 (P49137), experiment wp172) it was −0.3294. Moreover, the “logFC LCK” value is −0.4575 in test [2] (setting [7]); −0.5386 in test [2] (LCK P06239-1, experiment wp160, 8 hr); −0.4575 in test [2] (setting [8]); −0.5386 in test [2] (LCK, accession P06239-1, experiment wp160, 8 hr, direction of change down); −0.4468 in test [2] (LCK, accession P06239, experiment wp152, direction of change down). Moreover, the “logFC of LCK (P06239)” value in test [2] (experiment wp152) is −0.4468. For the same molecule, the logFC is given as −0.331 in test [3] (PLK1 P53350, experiment wp152); −0.501 in test [4] (NLK (Q9UBE8), experiment wp117, direction down); −0.5569 in test [4] (NLK (Q9UBE8), experiment wp160, 8 hr, direction down); −0.501 in test [4] (NLK Q9UBE8, experiment wp117); −0.5569 in test [4] (NLK Q9UBE8, experiment wp160, 8 hr). Further, in test [3] (PLK1 P53350, experiment wp152), the “logFC PLK1” value is given as −0.331.
For the molecule `CC(C)S(=O)(=O)c1ccccc1Nc1nc(Nc2ccc(N3CCN(CCOCCOCCNC(=O)CNc4cccc5c4C(=O)N(C4CCC(=O)NC4=O)C5=O)CC3)cc2)ncc1Cl` (centres unmarked) [TL12.186], the logFC in test [5] (experiment wp137) is −0.3334; in test [5] (experiment wp137, direction down), −0.3334; in test [4] (setting [9]) it was −0.5154; in test [4] (NLK Q9UBE8, experiment wp137), −0.5154.
For `Cc1ncsc1-c1ccc([C@H](C)NC(=O)[C@@H]2C[C@@H](O)CN2C(=O)[C@@H](NC(=O)CCCCCN2CCN(c3ccc(Nc4ncc5scc(-c6cccc(NS(C)(=O)=O)c6)c5n4)cc3)CC2)C(C)(C)C)cc1` [RSS0680, (2S,4R)-1-((S)-3,3-Dimethyl-2-(6-(4-(4-((7-(3-(methylsulfonamido)phenyl)thieno[3,2-d]pyrimidin-2-yl)amino)phenyl)piperazin-1-yl)hexanamido)butanoyl)-4-hydroxy-N—((S)-1-(4-(4-methylthiazol-5yl)phenyl)ethyl)pyrrolidine-2-carboxamide], in test [6] (experiment wp117), the logFC was −0.3587 and the “logFC CDK1” value is −0.3587.
Turning to `Cc1ncsc1-c1ccc([C@H](C)NC(=O)[C@@H]2C[C@@H](O)CN2C(=O)[C@@H](NC(=O)CCOCCOCCN2CCN(c3ccc(Nc4ncc(Cl)c(Nc5ccccc5S(=O)(=O)C(C)C)n4)cc3)CC2)C(C)(C)C)cc1` [FMF.06.098.1], the logFC is reported as −0.4347 in test [5] (experiment wp108); −0.4347 in test [5] (experiment wp108, direction down); −0.4637 in test [5] (experiment wp131); −0.4637 in test [5] (experiment wp131, direction down); −0.3535 in test [6] (experiment wp131). For the same molecule, the “logFC CDK1” value in test [6] (experiment wp131) is reported as −0.3535.
As to `CNC(=O)c1ccccc1Nc1cc(Nc2ccc(N3CCN(CCOCCOCCNC(=O)CNc4cccc5c4C(=O)N(C4CCC(=O)NC4=O)C5=O)CC3)cc2OC)ncc1C(F)(F)F` (centres unmarked) [MFH.5.103.1], the logFC is given as −0.4142 in test [5] (experiment wp076) and −0.4142 in test [5] (experiment wp076, direction down).
On to `CC(C)(C)c1nc(-c2cccc(NS(=O)(=O)c3c(F)cccc3F)c2F)c(-c2ccnc(NCCOCCNC(=O)CCOCCOCCNc3cccc4c3C(=O)N(C3CCC(=O)NC3=O)C4=O)n2)s1` (centres unmarked) [DD.03.106], for which the “logFC PLK1” value in test [3] (PLK1 P53350, experiment wp147, 4 uM) is recorded as −0.3533. In addition, the logFC is reported as −0.3533 in test [3] (PLK (P53350), experiment wp147, 4 uM); −0.5015 in test [6] (experiment wp147, 2 uM); −0.5416 in test [6] (experiment wp147, 4 uM); −0.441 in test [4] (setting [9]). In addition, the “logFC CDK1” value in test [6] (experiment wp147, 2 uM) is −0.5015; in test [6] (experiment wp147, 4 uM), −0.5416.
Turning to `CC(C)S(=O)(=O)c1ccccc1Nc1nc(Nc2ccc(N3CCN(CCOCCNC(=O)CNc4cccc5c4C(=O)N(C4CCC(=O)NC4=O)C5=O)CC3)cc2)ncc1Cl` (centres unmarked) [SK.3.91], the “logFC LCK” value in test [2] (LCK P06239-1, experiment wp160, 2 hr) was −0.4627; in test [2] (setting [7]), −1.173; in test [2] (LCK, accession P06239-1, experiment wp160, 2 hr, direction of change down) it was −0.4627; in test [2] (setting [8]), −1.173. Besides, the logFC is on record as −0.3924 in test [5] (experiment wp016, 1 uM); −0.3924 in test [5] (experiment wp016, 1 uM, direction down); −0.5591 in test [3] (setting [10]); −0.5804 in test [3] (setting [11]); −0.7482 in test [3] (setting [12]). For the same molecule, the results for the “logFC PLK1” value in test [3] (setting [10]), in test [3] (setting [11]) and in test [3] (setting [12]) were −0.5591, −0.5804 and −0.7482, respectively.
As to `Cc1ccc(NC(=O)c2cccc(C(F)(F)F)c2)cc1N1Cc2cnc(Nc3ccc(N4CCN(CCCOc5cccc6c5C(=O)N(C5CCC(=O)NC5=O)C6=O)CC4)nc3)nc2N(C)C1=O` (centres unmarked) [DB0662], the “logFC MAPKAPK2” value in test [1] (Accession P49137, experiment wp168, direction down) is on record as −0.331; in test [1] (MAPKAPK2 (P49137), experiment wp168), −0.331. The “logFC LCK” value in test [2] (LCK P06239-1, experiment wp168) is listed as −0.9078; in test [2] (LCK, accession P06239-1, experiment wp168, direction of change down), −0.9078.
Regarding `Cn1c(=O)c(-c2c(Cl)cccc2Cl)cc2cnc(Nc3ccc(OCCNC(=O)CCCCCCNC(=O)COc4cccc5c4C(=O)N(C4CCC(=O)NC4=O)C5=O)cc3)nc21` (centres unmarked) [SB1.G.192.1], the “logFC LCK” value in test [2] (LCK P06239-1, experiment wp081) is reported as −1.748; in test [2] (setting [13]), −1.748. Further, the logFC in test [4] (NLK (Q9UBE8), experiment wp071, direction down) is reported as −0.5578; in test [4] (NLK (Q9UBE8), experiment wp081, direction down), −0.4869; in test [4] (NLK (Q9UBE8), experiment wp131, direction down), −0.5634; in test [4] (NLK Q9UBE8, experiment wp071), −0.5578; in test [4] (NLK Q9UBE8, experiment wp081), −0.4869; in test [4] (NLK Q9UBE8, experiment wp131), −0.5634.
In the case of `Cc1ccc(C(=O)Nc2ccc(CN3CCN(CCOCCOCCNC(=O)CNc4cccc5c4C(=O)N(C4CCC(=O)NC4=O)C5=O)CC3)c(C(F)(F)F)c2)cc1C#Cc1cnc2cccnn12` (centres unmarked) [TL13.150], the “logFC LCK” value in test [2] (LCK P06239-1, experiment wp081) was −0.7129; in test [2] (setting [13]), −0.7129.

Source of the values: patent US20240269139A1, “COMPOUNDS FOR TARGETED PROTEIN DEGRADATION OF KINASES” (DANA-FARBER CANCER INSTITUTE, INC., priority 2020, published 2024).
